Measurements as given in article PMC6409085, “Three odorant-binding proteins are involved in the behavioral response of Sogatella furcifera to rice plant volatiles” (PeerJ, 2019).
Several values for one entry are separate records, joined by “and”; a condition that tells them apart may be missing. Equal values may be shown once.

Legend:
S. furcifera adults = assay: Y-tube olfactometer behavioral trials; type: in vivo, Sogatella furcifera; details: odorant 50 µL/L vs hexane; adults
Method in brief: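 Single S. furcifera adults (2 days post-emergence, starved 0.5 h) chose between odorant (100 µL of 50 µL/L on filter paper) and hexane control in a glass Y-tube, charcoal-filtered humidified air 300 mL/min per arm, 25 ± 1 °C, 50% RH. Choice scored if insect passed half an arm and stayed >1 min within 10 min; 45 insects per compound, chi-squared test.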

SfurOBP1 = SfurOBP1 (Sogatella furcifera, UniProt V5T8N5); assay: biochemical; type: binding; details: for Fluorescence competitive binding assay, fluorescence intensity: OBP1, three replicate columns
Method in brief: (§1)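 Fluorescence competitive binding with 1-NPN as reporter: 2.0 µM protein and 2.0 µM 1-NPN in 50 mM Tris-HCl pH 7.4, odorant added at 2–20 µM final. Excitation 337 nm, emission 390–490 nm read 2 min after addition, triplicates. Ki = IC50/(1 + [1-NPN]/K1-NPN).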

SfurOBP3 = SfurOBP3 (Sogatella furcifera, UniProt V5T818); assay: biochemical; type: binding; details: for Fluorescence competitive binding assay, fluorescence intensity: OBP3, three replicate columns
Method in brief: as §1

SfurOBP11 = SfurOBP11 (Sogatella furcifera, UniProt V5T6E3); assay: biochemical; type: binding
Method in brief: as §1

SfurOBP2 = SfurOBP2 (Sogatella furcifera, UniProt V5T759); assay: biochemical; type: binding
Method in brief: as §1

SfurOBP1, sequence (V5T8N5 entry or part of it): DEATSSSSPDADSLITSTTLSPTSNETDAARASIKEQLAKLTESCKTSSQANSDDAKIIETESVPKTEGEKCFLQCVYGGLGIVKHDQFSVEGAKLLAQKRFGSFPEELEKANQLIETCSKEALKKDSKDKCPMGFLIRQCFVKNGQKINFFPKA
SfurOBP11, sequence (V5T6E3 entry or part of it): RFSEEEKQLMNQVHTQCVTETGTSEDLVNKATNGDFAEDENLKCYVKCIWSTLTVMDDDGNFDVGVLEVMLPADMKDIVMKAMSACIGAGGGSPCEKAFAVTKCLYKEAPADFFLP
SfurOBP3, sequence (V5T818 entry or part of it): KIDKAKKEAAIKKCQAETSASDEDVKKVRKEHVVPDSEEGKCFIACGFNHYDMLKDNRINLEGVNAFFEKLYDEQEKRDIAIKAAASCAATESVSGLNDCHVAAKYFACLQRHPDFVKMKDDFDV
SfurOBP2, sequence (V5T759 entry or part of it): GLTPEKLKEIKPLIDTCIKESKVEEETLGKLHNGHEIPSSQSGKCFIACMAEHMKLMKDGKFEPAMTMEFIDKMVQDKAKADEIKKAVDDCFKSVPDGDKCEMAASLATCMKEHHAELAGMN

SMILES: C=C1CC/C=C(\C)CC[C@@H]2[C@@H]1CC2(C)C [β-caryophyllene]
- number of insects choosing hexane arm (S. furcifera adults): 15
- number of insects choosing volatilies arm (S. furcifera adults): 16
- number of insects failed (no choice) (S. furcifera adults): 9
- IC50 (SfurOBP1): > 20 µM
- Fluorescence competitive binding assay, fluorescence intensity (SfurOBP1; ligand concentration 2 (μM)): 5117 and 5425 and 5286
- Fluorescence competitive binding assay, fluorescence intensity (SfurOBP1; ligand concentration 4 (μM)): 6363 and 5644 and 6004
- Fluorescence competitive binding assay, fluorescence intensity (SfurOBP1; ligand concentration 6 (μM)): 6522 and 6380 and 7207
- Fluorescence competitive binding assay, fluorescence intensity (SfurOBP1; ligand concentration 8 (μM)): 6475 and 7284 and 8411
- Fluorescence competitive binding assay, fluorescence intensity (SfurOBP1; ligand concentration 10 (μM)): 6788 and 8986 and 9051
- Fluorescence competitive binding assay, fluorescence intensity (SfurOBP1; ligand concentration 12 (μM)): 7963 and 9385 and 12364
- Fluorescence competitive binding assay, fluorescence intensity (SfurOBP1; ligand concentration 14 (μM)): 10459 and 9678 and 17343
- Fluorescence competitive binding assay, fluorescence intensity (SfurOBP1; ligand concentration 16 (μM)): 9671 and 11754 and 9907
- Fluorescence competitive binding assay, fluorescence intensity (SfurOBP1; ligand concentration 18 (μM)): 16605 and 15288 and 16195
- Fluorescence competitive binding assay, fluorescence intensity (SfurOBP1; ligand concentration 20 (μM)): 15809 and 13061 and 12977
- IC50 (SfurOBP3): > 20 µM
- Fluorescence competitive binding assay, fluorescence intensity (SfurOBP3; ligand concentration 2): 59910 and 62614 and 72673
- Fluorescence competitive binding assay, fluorescence intensity (SfurOBP3; ligand concentration 4): 64089 and 65130 and 67441
- Fluorescence competitive binding assay, fluorescence intensity (SfurOBP3; ligand concentration 6): 62365 and 65722 and 64412
- Fluorescence competitive binding assay, fluorescence intensity (SfurOBP3; ligand concentration 8): 61822 and 63261 and 63413
- Fluorescence competitive binding assay, fluorescence intensity (SfurOBP3; ligand concentration 10): 59908 and 63429 and 67892
- Fluorescence competitive binding assay, fluorescence intensity (SfurOBP3; ligand concentration 12): 56993 and 56771 and 64941
- Fluorescence competitive binding assay, fluorescence intensity (SfurOBP3; ligand concentration 14): 61557 and 60060 and 62301
- Fluorescence competitive binding assay, fluorescence intensity (SfurOBP3; ligand concentration 16): 39308 and 53990 and 51354
- Fluorescence competitive binding assay, fluorescence intensity (SfurOBP3; ligand concentration 18): 76113 and 82456 and 70640
- Fluorescence competitive binding assay, fluorescence intensity (SfurOBP3; ligand concentration 20): 72444 and 66812 and 61866
- IC50 (SfurOBP11): > 20 µM
- Fluorescence intensity, fluorescence competitive binding assay, OBP11 (SfurOBP11; ligand concentration 2, replicate 1): 23970
- Fluorescence intensity, fluorescence competitive binding assay, OBP11 (SfurOBP11; ligand concentration 2, replicate 2): 23335
- Fluorescence intensity, fluorescence competitive binding assay, OBP11 (SfurOBP11; ligand concentration 2, replicate 3): 21938
- Fluorescence intensity, fluorescence competitive binding assay, OBP11 (SfurOBP11; ligand concentration 4, replicate 1): 23122
- Fluorescence intensity, fluorescence competitive binding assay, OBP11 (SfurOBP11; ligand concentration 4, replicate 2): 24566
- Fluorescence intensity, fluorescence competitive binding assay, OBP11 (SfurOBP11; ligand concentration 4, replicate 3): 25482
- Fluorescence intensity, fluorescence competitive binding assay, OBP11 (SfurOBP11; ligand concentration 6, replicate 1): 23526
- Fluorescence intensity, fluorescence competitive binding assay, OBP11 (SfurOBP11; ligand concentration 6, replicate 2): 25770
- Fluorescence intensity, fluorescence competitive binding assay, OBP11 (SfurOBP11; ligand concentration 6, replicate 3): 26267
- Fluorescence intensity, fluorescence competitive binding assay, OBP11 (SfurOBP11; ligand concentration 8, replicate 1): 21931
- Fluorescence intensity, fluorescence competitive binding assay, OBP11 (SfurOBP11; ligand concentration 8, replicate 2): 24474
- Fluorescence intensity, fluorescence competitive binding assay, OBP11 (SfurOBP11; ligand concentration 8, replicate 3): 27203
- Fluorescence intensity, fluorescence competitive binding assay, OBP11 (SfurOBP11; ligand concentration 10, replicate 1): 23853
- Fluorescence intensity, fluorescence competitive binding assay, OBP11 (SfurOBP11; ligand concentration 10, replicate 2): 25460
- Fluorescence intensity, fluorescence competitive binding assay, OBP11 (SfurOBP11; ligand concentration 10, replicate 3): 25443
- Fluorescence intensity, fluorescence competitive binding assay, OBP11 (SfurOBP11; ligand concentration 12, replicate 1): 23639
- Fluorescence intensity, fluorescence competitive binding assay, OBP11 (SfurOBP11; ligand concentration 12, replicate 2): 23490
- Fluorescence intensity, fluorescence competitive binding assay, OBP11 (SfurOBP11; ligand concentration 12, replicate 3): 23358
- Fluorescence intensity, fluorescence competitive binding assay, OBP11 (SfurOBP11; ligand concentration 14, replicate 1): 23808
- Fluorescence intensity, fluorescence competitive binding assay, OBP11 (SfurOBP11; ligand concentration 14, replicate 2): 26534
- Fluorescence intensity, fluorescence competitive binding assay, OBP11 (SfurOBP11; ligand concentration 14, replicate 3): 25924
- Fluorescence intensity, fluorescence competitive binding assay, OBP11 (SfurOBP11; ligand concentration 16, replicate 1): 22662
- Fluorescence intensity, fluorescence competitive binding assay, OBP11 (SfurOBP11; ligand concentration 16, replicate 2): 23024
- Fluorescence intensity, fluorescence competitive binding assay, OBP11 (SfurOBP11; ligand concentration 16, replicate 3): 23415
- Fluorescence intensity, fluorescence competitive binding assay, OBP11 (SfurOBP11; ligand concentration 18, replicate 1): 30250
- Fluorescence intensity, fluorescence competitive binding assay, OBP11 (SfurOBP11; ligand concentration 18, replicate 2): 30294
- Fluorescence intensity, fluorescence competitive binding assay, OBP11 (SfurOBP11; ligand concentration 18, replicate 3): 30235
- Fluorescence intensity, fluorescence competitive binding assay, OBP11 (SfurOBP11; ligand concentration 20, replicate 1): 30296
- Fluorescence intensity, fluorescence competitive binding assay, OBP11 (SfurOBP11; ligand concentration 20, replicate 2): 30444
- Fluorescence intensity, fluorescence competitive binding assay, OBP11 (SfurOBP11; ligand concentration 20, replicate 3): 30224
- IC50 (SfurOBP2): 2.93 µM
- Fluorescence competitive binding assay, OBP2 (raw fluorescence reading) (SfurOBP2; ligand concentration 2 (unit not given), replicate column 1 of 3): 11458
- Fluorescence competitive binding assay, OBP2 (raw fluorescence reading) (SfurOBP2; ligand concentration 2 (unit not given), replicate column 2 of 3): 11327
- Fluorescence competitive binding assay, OBP2 (raw fluorescence reading) (SfurOBP2; ligand concentration 2 (unit not given), replicate column 3 of 3): 11281
- Fluorescence competitive binding assay, OBP2 (raw fluorescence reading) (SfurOBP2; ligand concentration 4 (unit not given), replicate column 1 of 3): 12040
- Fluorescence competitive binding assay, OBP2 (raw fluorescence reading) (SfurOBP2; ligand concentration 4 (unit not given), replicate column 2 of 3): 12315
- Fluorescence competitive binding assay, OBP2 (raw fluorescence reading) (SfurOBP2; ligand concentration 4 (unit not given), replicate column 3 of 3): 12582
- Fluorescence competitive binding assay, OBP2 (raw fluorescence reading) (SfurOBP2; ligand concentration 6 (unit not given), replicate column 1 of 3): 13825
- Fluorescence competitive binding assay, OBP2 (raw fluorescence reading) (SfurOBP2; ligand concentration 6 (unit not given), replicate column 2 of 3): 12794
- Fluorescence competitive binding assay, OBP2 (raw fluorescence reading) (SfurOBP2; ligand concentration 6 (unit not given), replicate column 3 of 3): 13738
- Fluorescence competitive binding assay, OBP2 (raw fluorescence reading) (SfurOBP2; ligand concentration 8 (unit not given), replicate column 1 of 3): 13150
- Fluorescence competitive binding assay, OBP2 (raw fluorescence reading) (SfurOBP2; ligand concentration 8 (unit not given), replicate column 2 of 3): 13647
- Fluorescence competitive binding assay, OBP2 (raw fluorescence reading) (SfurOBP2; ligand concentration 8 (unit not given), replicate column 3 of 3): 14723
- Fluorescence competitive binding assay, OBP2 (raw fluorescence reading) (SfurOBP2; ligand concentration 10 (unit not given), replicate column 1 of 3): 16274
- Fluorescence competitive binding assay, OBP2 (raw fluorescence reading) (SfurOBP2; ligand concentration 10 (unit not given), replicate column 2 of 3): 13413
- Fluorescence competitive binding assay, OBP2 (raw fluorescence reading) (SfurOBP2; ligand concentration 10 (unit not given), replicate column 3 of 3): 15514
- Fluorescence competitive binding assay, OBP2 (raw fluorescence reading) (SfurOBP2; ligand concentration 12 (unit not given), replicate column 1 of 3): 16497
- Fluorescence competitive binding assay, OBP2 (raw fluorescence reading) (SfurOBP2; ligand concentration 12 (unit not given), replicate column 2 of 3): 15342
- Fluorescence competitive binding assay, OBP2 (raw fluorescence reading) (SfurOBP2; ligand concentration 12 (unit not given), replicate column 3 of 3): 16204
- Fluorescence competitive binding assay, OBP2 (raw fluorescence reading) (SfurOBP2; ligand concentration 14 (unit not given), replicate column 1 of 3): 16950
- Fluorescence competitive binding assay, OBP2 (raw fluorescence reading) (SfurOBP2; ligand concentration 14 (unit not given), replicate column 2 of 3): 15785
- Fluorescence competitive binding assay, OBP2 (raw fluorescence reading) (SfurOBP2; ligand concentration 14 (unit not given), replicate column 3 of 3): 16267
- Fluorescence competitive binding assay, OBP2 (raw fluorescence reading) (SfurOBP2; ligand concentration 16 (unit not given), replicate column 1 of 3): 16569
- Fluorescence competitive binding assay, OBP2 (raw fluorescence reading) (SfurOBP2; ligand concentration 16 (unit not given), replicate column 2 of 3): 16590
- Fluorescence competitive binding assay, OBP2 (raw fluorescence reading) (SfurOBP2; ligand concentration 16 (unit not given), replicate column 3 of 3): 16267
- Fluorescence competitive binding assay, OBP2 (raw fluorescence reading) (SfurOBP2; ligand concentration 18 (unit not given), replicate column 1 of 3): 20111
- Fluorescence competitive binding assay, OBP2 (raw fluorescence reading) (SfurOBP2; ligand concentration 18 (unit not given), replicate column 2 of 3): 21295
- Fluorescence competitive binding assay, OBP2 (raw fluorescence reading) (SfurOBP2; ligand concentration 18 (unit not given), replicate column 3 of 3): 20566
- Fluorescence competitive binding assay, OBP2 (raw fluorescence reading) (SfurOBP2; ligand concentration 20 (unit not given), replicate column 1 of 3): 21451
- Fluorescence competitive binding assay, OBP2 (raw fluorescence reading) (SfurOBP2; ligand concentration 20 (unit not given), replicate column 2 of 3): 21222
- Fluorescence competitive binding assay, OBP2 (raw fluorescence reading) (SfurOBP2; ligand concentration 20 (unit not given), replicate column 3 of 3): 20042
